US7358359B2, “Antibacterial agents” (University of Washington, priority 2003, dated 2008)
≈ marks a conversion by molar mass, not a printed value. Like-named read-outs stand apart in the source and are kept apart here.

How the values were obtained:
[1] = tested on: Pseudomonas aeruginosa cystic fibrosis isolate 3198; test: MIC vs cystic fibrosis isolate of P. aeruginosa 3198 (sensitive to most antibacterials); format: cell-based; conditions: strain 3198, Sensitive, LpxC inhibitors, MIC key class
Description: (§1) Bacterial isolates were cultivated from −70° C. frozen stocks by two consecutive overnight passages at 35° C. in ambient air on 5% blood agar (Remel, Lenexa, Kans.). Clinical isolates tested were from a collection composed of isolates collected during clinical trials and recent clinical isolates obtained from various geographically diverse hospitals in the US. Quality control and primary panel strains were from the American Type Culture Collection (ATCC; Rockville, Md.), with the exception of P. aeruginosa PAO200, a strain with a deletion of the mexABoprM genes that was received from Dr. H. Schweizer.
(§2) Minimum Inhibitory Concentrations (MICs) were determined by the broth microdilution method in accordance with the National Committee for Clinical Laboratory Standards (NCCLS) guidelines. In brief, organism suspensions were are adjusted to a 0.5 McFarland standard to yield a final inoculum between 3×10^5 and 7×10^5 colony-forming units (CFU)/mL. Drug dilutions and inocula were made in sterile, cation adjusted Mueller-Hinton Broth (Remel). An inoculum volume of 100 μl was added to wells containing 100 μl of broth with 2-fold serial dilutions of drug. All inoculated microdilution trays were incubated in ambient air at 35° C. for 18-24 hours. Following incubation, the lowest concentration of the drug that prevented visible growth was recorded as the MIC.

Enterobacter cloacae = test: MIC vs enteric organisms: Enterobacter cloacae; format: cell-based; conditions: E. clo., MIC key class
Description: as §1, §2

P. aeruginosa LpxC = target: T1, P. aeruginosa LpxC (Pseudomonas aeruginosa, UniProt P47205); test: P. aeruginosa LpxC Inhibition Assay; format: biochemical
T1 sequence (P47205 1-303): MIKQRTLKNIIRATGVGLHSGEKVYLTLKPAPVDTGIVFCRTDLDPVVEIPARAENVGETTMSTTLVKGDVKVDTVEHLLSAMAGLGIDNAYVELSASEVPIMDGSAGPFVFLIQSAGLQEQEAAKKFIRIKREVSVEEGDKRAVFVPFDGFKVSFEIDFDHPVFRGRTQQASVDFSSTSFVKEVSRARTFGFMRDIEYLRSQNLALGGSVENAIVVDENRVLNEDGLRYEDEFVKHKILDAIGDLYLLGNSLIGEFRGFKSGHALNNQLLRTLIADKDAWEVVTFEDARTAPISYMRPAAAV
Description: The assay followed the general method of Hyland et al (Journal of Bacteriology 1997 179, 2029-2037: Cloning, expression and purification of UDP-3-O-acyl-GlcNAc deacetylase from Pseudomonas aeruginosa: a metalloamidase of the lipid A biosynthesis pathway) and the radiolabeling procedure is according to Kline et al. supra. Briefly, samples were incubated with 2 nM P. aeruginosa LpxC and 150 nM [3H-Ac]-UDP-3-OR-3-hydroxydecanoyl)-GlcNAc in a total volume of 50 uL for 90 min at room temperature. Reactions were carried out in 96-well polypropylene plates in 50 mM sodium phosphate buffer, pH 7.5, containing 1 mg/mL BSA. Reactions were stopped by the addition of 180 uL of a 3% suspension of activated charcoal powder in 100 mM sodium acetate, pH 7.5. Supernatants were clarified by centrifugation. A portion of the clarified supernatant, containing the enzymatically released [3H]-acetate, was transferred to opaque white 96-well plates containing scintillation fluid. The radioactivity was measured in a Perkin-Elmer/Wallac Trilux Microbeta counter.

Burkholderia cepacia = test: MIC vs non-fermenting organisms: Burkholderia cepacia; format: cell-based; conditions: Burkholderia cepacia, B. cepacia; MIC key class; read-out: MIC
Description: as §1, §2

E. coli 25922 = test: MIC broth microdilution, standard panel: E. coli 25922; format: cell-based; conditions: Escherichia coli, standard panel of organisms
Description: as §1, with “Schweizer. […] Strain Z61 (ATCC 35151) is also hypersusceptible to antibacterials. It is thought that the hypersusceptibility of this strain is the result of increased permeability of its outer membrane (Angus B L et al, Antimicrobial Agents and Chemotherapy 1982 21,299-309: Outer membrane permeability in Pseudomonas aeruginosa: Comparison of a wild-type with an antibacterial-supersusceptible mutant).” for “Schweizer.”
as §2, with “MIC. Performance of the assay was monitored by the use of laboratory quality-control strains against tobramycin, that has a defined MIC spectrum, in accordance with NCCLS guidelines.” for “MIC.”

[2] = tested on: Pseudomonas aeruginosa cystic fibrosis isolate 3224; test: MIC vs cystic fibrosis isolate of P. aeruginosa 3224; format: cell-based; conditions: strain 3224, Tobra R, LpxC inhibitors, MIC key class
Description: as §1, §2

Serratia marcescens = test: MIC vs enteric organisms: Serratia marcescens; format: cell-based; conditions: S. marc., MIC key class
Description: as §1, §2

Alcaligenes xylosoxidans = test: MIC vs non-fermenting organisms: Alcaligenes xylosoxidans; format: cell-based; conditions: Achromobacter xylosoxidans; Alcal. xyl; MIC key class
Description: as §1, §2

[3] = tested on: Pseudomonas aeruginosa cystic fibrosis isolate 3317; test: MIC vs cystic fibrosis isolate of P. aeruginosa 3317 (resistant to aztreonam); format: cell-based; conditions: strain 3317, Aztr. R, LpxC inhibitors, MIC key class
Description: as §1, §2

[4] = tested on: Pseudomonas aeruginosa cystic fibrosis isolate 3232; test: MIC vs cystic fibrosis isolate of P. aeruginosa 3232 (Ceftaz. R); format: cell-based; conditions: strain 3232, Ceftaz. R, LpxC inhibitors, MIC key class
[5] = tested on: non-CF clinical isolates of P. aeruginosa; test: MIC vs non-CF clinical isolates of P. aeruginosa; format: cell-based; conditions: Pseudomonas aeruginosa, MIC key class
Description: as §1, with “Schweizer. […] Strain Z61 (ATCC 35151) is also hypersusceptible to antibacterials. It is thought that the hypersusceptibility of this strain is the result of increased permeability of its outer membrane (Angus B L et al, Antimicrobial Agents and Chemotherapy 1982 21,299-309: Outer membrane permeability in Pseudomonas aeruginosa: Comparison of a wild-type with an antibacterial-supersusceptible mutant).” for “Schweizer.”
as §2, with “MIC. Performance of the assay was monitored by the use of laboratory quality-control strains against tobramycin, that has a defined MIC spectrum, in accordance with NCCLS guidelines.” for “MIC.”

S. aureus 29213 = test: MIC broth microdilution, standard panel: S. aureus 29213; format: cell-based; conditions: Staphylococcus aureus, standard panel of organisms
Description: as §1, with “Schweizer. […] Strain Z61 (ATCC 35151) is also hypersusceptible to antibacterials. It is thought that the hypersusceptibility of this strain is the result of increased permeability of its outer membrane (Angus B L et al, Antimicrobial Agents and Chemotherapy 1982 21,299-309: Outer membrane permeability in Pseudomonas aeruginosa: Comparison of a wild-type with an antibacterial-supersusceptible mutant).” for “Schweizer.”
as §2, with “MIC. Performance of the assay was monitored by the use of laboratory quality-control strains against tobramycin, that has a defined MIC spectrum, in accordance with NCCLS guidelines.” for “MIC.”

[6] = tested on: Pseudomonas aeruginosa cystic fibrosis isolate 2196; test: MIC vs cystic fibrosis isolate of P. aeruginosa 2196 (resistant to ciprofloxacin); format: cell-based; conditions: strain 2196, Cipro R, LpxC inhibitors, MIC key class
Description: as §1, §2

[7] = tested on: P. aeruginosa PAO200 mexAB; test: MIC broth microdilution, standard panel: P. aeruginosa PAO200 mexAB; format: cell-based; conditions: Pseudomonas aeruginosa, PAO200MEXAB, read-out: MIC P. aeruginosa PAO200 mexAB
Description: as §1, with “Schweizer. […] Strain Z61 (ATCC 35151) is also hypersusceptible to antibacterials. It is thought that the hypersusceptibility of this strain is the result of increased permeability of its outer membrane (Angus B L et al, Antimicrobial Agents and Chemotherapy 1982 21,299-309: Outer membrane permeability in Pseudomonas aeruginosa: Comparison of a wild-type with an antibacterial-supersusceptible mutant).” for “Schweizer.”
as §2, with “MIC. Performance of the assay was monitored by the use of laboratory quality-control strains against tobramycin, that has a defined MIC spectrum, in accordance with NCCLS guidelines.” for “MIC.”

[8] = 2 nM P. aeruginosa LpxC, 90 min, room temperature, read-out: IC50 (nM), Enzyme inhibitory activity

Row | SMILES | MIC [1] [µg/mL] | MIC (Enterobacter cloacae) [µg/mL] | IC50 (P. aeruginosa LpxC; [8]) [nM] | MIC (Burkholderia cepacia) [µg/mL] | MIC (E. coli 25922) [µg/mL] | MIC [2] [µg/mL] | MIC (Serratia marcescens) [µg/mL] | MIC (Alcaligenes xylosoxidans) [µg/mL] | MIC [3] [µg/mL] | MIC [4] [µg/mL] | MIC ([5]; P. aer 27853) [µg/mL] | MIC ([5]; P. aer psa-6b) [µg/mL] | MIC ([5]; PAO1, P. aer. PAO1) [µg/mL] | MIC (S. aureus 29213) [µg/mL] | MIC [6] [µg/mL] | MIC [7] [µg/mL] | MIC ([5]; P. aer 12307) [µg/mL] | IC50 (P. aeruginosa LpxC) [nM]
1 | C[C@@H](O)[C@H](NC(=O)c1ccc(C#CC#Cc2ccc(NC(=O)CNc3ccccn3)cc2)cc1)C(=O)NO [Example 801, N-{(1S,2R)-2-hydroxy-1-[(hydroxyamino)carbonyl]propyl}-4-[4-(4-{[(pyridin-2-ylamino)acetyl]amino}phenyl)buta-1,3-diynyl]benzamide] | < 6.25 | < 6.25 | < 100 | 6.25 to 50 (≈ 12.2 to 97.7 µM) | < 6.25 | < 6.25 | < 6.25 | > 50 | < 6.25 | < 6.25 | < 6.25 | < 6.25 | < 6.25 | > 50 | < 6.25 | < 6.25 |  | 
2 | NC[C@H](NC(=O)c1ccc(C#CC#Cc2ccccc2)cc1)C(=O)NO [Example 481, N-[(1S)-1-(aminomethyl)-2-(hydroxyamino)-2-oxoethyl]-4-(4-phenylbuta-1,3-diynyl)benzamide] | < 6.25 | < 6.25 | < 100 | 6.25 to 50 (≈ 18 to 144 µM) | < 6.25 | < 6.25 | < 6.25 | > 50 | < 6.25 | < 6.25 | < 6.25 | < 6.25 | < 6.25 | > 50 | < 6.25 | < 6.25 | < 6.25 | 
3 | C[C@@H](N)[C@H](NC(=O)c1ccc(C#Cc2ccccc2)cc1)C(=O)NO [Example 13] | < 6.25 | < 6.25 |  | < 6.25 | < 6.25 | < 6.25 | < 6.25 | < 6.25 | < 6.25 | < 6.25 | < 6.25 | < 6.25 | < 6.25 | > 50 | < 6.25 | < 6.25 |  | < 100
4 | C[C@@H](O)[C@H](NC(=O)c1ccc(C#CC#Cc2ccccc2)cc1)C(=O)NO [Example 19, N-(1-(N-hydroxycarbamoyl)(1S,2R)-2-hydroxypropyl)[4-(4-phenylbuta-1,3-diynyl)phenyl]carboxamide] | < 6.25 | < 6.25 |  | 6.25 to 50 (≈ 17.2 to 138 µM) | < 6.25 | < 6.25 | < 6.25 | 6.25 to 50 (≈ 17.2 to 138 µM) | < 6.25 | < 6.25 | < 6.25 | < 6.25 | < 6.25 | 6.25 to 50 (≈ 17.2 to 138 µM) | < 6.25 | < 6.25 | < 6.25 | < 100
5 | CCc1ccc(-c2ccc(C(=O)N[C@@H](CN)C(=O)NO)cc2)cc1 [Example 280, N-[(1S)-1-(aminomethyl)-2-(hydroxyamino)-2-oxoethyl]-4′-ethyl-1,1-biphenyl-4-carboxamide] | < 6.25 | < 6.25 | < 100 | 6.25 to 50 (≈ 19.1 to 153 µM) | < 6.25 | < 6.25 | 6.25 to 50 (≈ 19.1 to 153 µM) | 6.25 to 50 (≈ 19.1 to 153 µM) | < 6.25 | < 6.25 | < 6.25 | < 6.25 | < 6.25 | > 50 | 6.25 to 50 (≈ 19.1 to 153 µM) | < 6.25 | < 6.25 | 
6 | CCc1ccc(-c2ccc(C(=O)N[C@H](C(=O)NO)[C@@H](C)N)cc2)cc1 [Example 779, N-{(1S,2R)-2-amino-1-[(hydroxyamino)carbonyl]propyl)-4′-ethyl-1,1′-biphenyl-4-carboxamide] | < 6.25 | < 6.25 |  | < 6.25 | < 6.25 | < 6.25 | < 6.25 | < 6.25 | < 6.25 | < 6.25 | < 6.25 | < 6.25 | < 6.25 | > 50 | < 6.25 | < 6.25 |  | < 100
